In brackets after ≈: the same amount, converted by molar mass. Read-outs that look alike come from different tables or passages of the source.
Legend:
[1] = pH-solubility profile of amorphous Letermovir (BCS approach); format: physicochemical; settings: standard buffer solutions, thermodynamic from solid
Method: The inventors conducted a solubility study of amorphous Letermovir to investigate its biopharmaceutical status by standardized measures. The inventors orientated on the guidelines of the established Biopharmaceutics Classification System (BCS). The solubility class boundary according to the BCS is based on the highest dose strength of the IR product. By using the BCS approach the equilibrium solubility of amorphous Letermovir under physiological pH conditions is determined. The pH-solubility profile of amorphous Letermovir was determined at 37±1° C. in aqueous media with a pH in the range of 1-7.5. A sufficient number of pH conditions were evaluated to accurately define the pH-solubility profile of amorphous Letermovir. The number of pH conditions for the solubility determination was based on the ionization characteristics of Letermovir. A minimum of three replicate determinations of solubility in each pH condition was conducted. The highest dose of Letermovir is exemplarily 240 mg. When dissolved in 250 ml this equates to a concentration of 0.96 mg/ml.

[2] = Absolute bioavailability, Cohort 1 of a clinical trial (oral vs intravenous); format: in vivo; settings: human, plasma; single 30 mg oral dose (amorphous) vs 30 mg intravenous 30 min infusion; based on AUC0-last; 12 healthy female subjects
Method: Assessment of absolute bioavailability after oral administration of 30 mg Letermovir in the amorphous state versus a 30 minute intravenous administration of 30 mg Letermovir in 150 ml saline solution 0.9%. Cohort 1 of the trial was conducted in an open-label, randomized (to treatment sequence), single center cross-over design (2 periods) in 12 healthy female subjects. Subjects received a single intravenous dose of 30 mg Letermovir via a 30-minute infusion in one period (“reference”) and a single oral dose of 30 mg Letermovir in the amorphous state in the other period (“test”). In both periods subjects were in-house from Day −1 to Day 4 (72 h after dosing on Day 1). The washout period between the periods (i.e. the dosing) was at least one week. The 30 mg dose in Cohort 1 was evaluated (see FIGS. 7a and 7b). Plasma concentrations of Letermovir were determined using a lower limit of quantification (LLOQ) of 1.00 ng/mL. Pharmacokinetic parameters AUC0-∞, Cmax, F, AUC0-last, tmax, λZ, t1/2z, CL/F, CL, Vd/F, Vd, MRT, AUC0-∞/D, Cmax/D, AUC0-last/D for Cohort 1 were calculated in WinNonlin using the actual sampling times. Descriptive statistics were calculated for the plasma concentrations and for the derived pharmacokinetic parameters. Statistics included sample size (n), mean, standard deviation (SD), percentage of coefficient of variation (% CV), geometric mean, median, minimum, and maximum. […]

[3] = Long-term stability study of Letermovir precipitate tablets; format: physicochemical
Method: Long-term stability studies were conducted with testing of color, dissolution, degradation products and assay at regular intervals to confirm the stability of amorphous Letermovir precipitate tablets.
In addition, disintegration, water content and hardness/breaking load were conducted as informative tests.
Samples of one batch of each dose strength of Letermovir precipitate tablets, packaged in 45 ml HDPE bottles with child-resistant closures were stored at 25° C./60% relative humidity and at 40° C./75% relative humidity. Stability data after 36 months storage were reported.
Additional forced degradation studies were conducted. One batch per dose strength of Letermovir was stored at 60° C. for 3 months. In order to assess the hydrolytic stability, one batch of the 20 mg dose strength was stored with open storage at 40° C./75% relative humidity for 3 months.

[4] = Ionization characteristics (isoelectric point, pKa); format: physicochemical
Excerpt: The expressions “zwitterionic, zwitterionic properties, and zwitterion” in the context of the present invention for the API Letermovir means that a Letermovir molecule is a neutral molecule having a positive and a negative electrical charge at different locations within the same molecule. Accordingly, the API Letermovir has a charge, which changes with pH when measured in an electric field. […] The net charge is influenced by the pH value. Letermovir has a fixed value of isoelectric point (pI) being the pH value at which the number of cations is equal to that of anions. At this point (pI=5.55) the net electric charge of Letermovir is always zero. The solubility class boundary according to the BCS is based on the highest dose strength of the IR product. By using the BCS approach the equilibrium solubility of amorphous Letermovir under physiological pH conditions is determined. The pH-solubility profile of amorphous Letermovir was determined at 37±1° C. in aqueous media with a pH in the range of 1-7.5. A sufficient number of pH conditions were evaluated to accurately define the pH-solubility profile of amorphous Letermovir. The number of pH conditions for the solubility determination was based on the ionization characteristics of Letermovir. A minimum of three replicate determinations of solubility in each pH condition was conducted.

HCMV isolates = experiment: Antiviral activity against HCMV isolates; format: cell-based, human cytomegalovirus; settings: Human betaherpesvirus 5; HCMV isolates of the respective individual; SD 0.0001 to 0.001
Excerpt: The term “pharmaceutical activity” of Letermovir denotes the antiviral activity against HCMV isolates of the respective individual, being in the range of EC50±SD of 0.0005 to 0.005±0.0001 to 0.001.

With `COc1cccc(N2CCN(C3=Nc4c(F)cccc4[C@H](CC(=O)O)N3c3cc(C(F)(F)F)ccc3OC)CC2)c1` [Letermovir, (S)-{8-Fluoro-2-[4-(3-methoxyphenyl)-1-piperazinyl]-3-[2-methoxy-5-(trifluoromethyl)phenyl]-3,4-dihydro-4-quinazolinyl}acetic acid] the solubility at 24 h ([1]; 37 °C, aqueous buffer, pH range 1 to 7.5, summary of Table 3, read-out: solubility of Letermovir over the pH-range of 1 to 7.5) was ≥ 400 µg/mL, the solubility at 24 h ([1]; aqueous buffer, pH 2.9 (pKa1 − 1), 37°C±1°C, standard buffer, stirring 24 hours, read-out: Letermovir solubility) was 800 µg/mL (≈ 1400 µM) and the solubility at 24 h ([1]; aqueous buffer, pH 3.9 (pKa1), 37°C±1°C, standard buffer, stirring 24 hours, read-out: Letermovir solubility) was 400 µg/mL (≈ 699 µM). For the same compound, the solubility at 24 h ([1]; aqueous buffer, pH 4.9 (pKa1 + 1), 37°C±1°C, standard buffer, stirring 24 hours, read-out: Letermovir solubility) was 400 µg/mL, the solubility at 24 h ([1]; aqueous buffer, pH 7.5, 37°C±1°C, standard buffer, stirring 24 hours, read-out: Letermovir solubility) was > 1000 µg/mL and the solubility at 24 h ([1]; simulated gastric fluid, pH 1, 37°C±1°C, standard buffer, stirring 24 hours, read-out: Letermovir solubility) was > 900 µg/mL. For the same compound, the bioavailability [2] was 76%, the “stability under long-term and accelerated storage conditions” value ([3]; 25°C/60% relative humidity and 40°C/75% relative humidity, 36 months) was “stable” and the shelf-life assigned ([3]; real time data at 25°C/60% RH) was 36 months. For the same compound, the pKa1 [4] was 3.9 (pKa1), the “isoelectric point (pI)” value ([4]; pH at which net electric charge is zero) was 5.55 and the EC50 (HCMV isolates) was 0.5 to 5 nM.
